Activity calls are given as the source filed them. No cut-off for these calls is given here.
Tests used:
[1] = target: T1, Glutamate NMDA receptor; GRIN1/GRIN2B (Homo sapiens, UniProt Q05586+Q13224); experiment: Inhibition of recombinant GluN1/GluN2B receptor (unknown origin) expressed in HEK293 cells assessed as inhibition of glutamate-evoked current by whole-cell voltage-clamp method; format: cell-based
[2] = target: T1, Glutamate NMDA receptor; GRIN1/GRIN2B; experiment: Inhibition of recombinant GluN1/GluN2B receptor (unknown origin) expressed in HEK293 cells assessed as inhibition of glutamate-evoked current at 1 to 10 uM by whole-cell voltage-clamp method; format: cell-based
Glutamate NMDA receptor = experiment: Inhibition of NMDA receptor in rat hippocampal neurons assessed as inhibition of glutamate-evoked current by whole-cell voltage-clamp method; format: tissue-based, Hippocampus
[3] = Inhibition of GABA receptor in rat hippocampal neurons assessed as inhibition of GABA-evoked current by whole-cell voltage-clamp method; format: tissue-based; conditions: Hippocampus
[4] = target: Glutamate NMDA receptor; GRIN1/GRIN2A (Homo sapiens, UniProt Q05586+Q12879); experiment: Inhibition of recombinant GluN1/GluN2A receptor (unknown origin) expressed in HEK293 cells assessed as inhibition of glutamate-evoked current by whole-cell voltage-clamp method; format: cell-based
[5] = target: Ionotropic glutamate receptor NMDA 1/2D (Homo sapiens, UniProt O15399+Q05586); experiment: Inhibition of recombinant GluN1/GluN2D receptor (unknown origin) expressed in HEK293 cells assessed as inhibition of glutamate-evoked current by whole-cell voltage-clamp method; format: cell-based
[6] = target: Ionotropic glutamate receptor NMDA 1/2C (Homo sapiens, UniProt Q05586+Q14957); experiment: Inhibition of recombinant GluN1/GluN2C receptor (unknown origin) expressed in HEK293 cells assessed as inhibition of glutamate-evoked current by whole-cell voltage-clamp method; format: cell-based
[7] = Inhibition of AMPA receptor in rat hippocampal neurons assessed as inhibition of AMPA-evoked current by whole-cell voltage-clamp method in presence of receptor desensitization inhibitor cyclothiazide; format: tissue-based; conditions: Hippocampus

Sequence of Ionotropic glutamate receptor NMDA 1/2C (Q14957 whole entry, other chains not shown): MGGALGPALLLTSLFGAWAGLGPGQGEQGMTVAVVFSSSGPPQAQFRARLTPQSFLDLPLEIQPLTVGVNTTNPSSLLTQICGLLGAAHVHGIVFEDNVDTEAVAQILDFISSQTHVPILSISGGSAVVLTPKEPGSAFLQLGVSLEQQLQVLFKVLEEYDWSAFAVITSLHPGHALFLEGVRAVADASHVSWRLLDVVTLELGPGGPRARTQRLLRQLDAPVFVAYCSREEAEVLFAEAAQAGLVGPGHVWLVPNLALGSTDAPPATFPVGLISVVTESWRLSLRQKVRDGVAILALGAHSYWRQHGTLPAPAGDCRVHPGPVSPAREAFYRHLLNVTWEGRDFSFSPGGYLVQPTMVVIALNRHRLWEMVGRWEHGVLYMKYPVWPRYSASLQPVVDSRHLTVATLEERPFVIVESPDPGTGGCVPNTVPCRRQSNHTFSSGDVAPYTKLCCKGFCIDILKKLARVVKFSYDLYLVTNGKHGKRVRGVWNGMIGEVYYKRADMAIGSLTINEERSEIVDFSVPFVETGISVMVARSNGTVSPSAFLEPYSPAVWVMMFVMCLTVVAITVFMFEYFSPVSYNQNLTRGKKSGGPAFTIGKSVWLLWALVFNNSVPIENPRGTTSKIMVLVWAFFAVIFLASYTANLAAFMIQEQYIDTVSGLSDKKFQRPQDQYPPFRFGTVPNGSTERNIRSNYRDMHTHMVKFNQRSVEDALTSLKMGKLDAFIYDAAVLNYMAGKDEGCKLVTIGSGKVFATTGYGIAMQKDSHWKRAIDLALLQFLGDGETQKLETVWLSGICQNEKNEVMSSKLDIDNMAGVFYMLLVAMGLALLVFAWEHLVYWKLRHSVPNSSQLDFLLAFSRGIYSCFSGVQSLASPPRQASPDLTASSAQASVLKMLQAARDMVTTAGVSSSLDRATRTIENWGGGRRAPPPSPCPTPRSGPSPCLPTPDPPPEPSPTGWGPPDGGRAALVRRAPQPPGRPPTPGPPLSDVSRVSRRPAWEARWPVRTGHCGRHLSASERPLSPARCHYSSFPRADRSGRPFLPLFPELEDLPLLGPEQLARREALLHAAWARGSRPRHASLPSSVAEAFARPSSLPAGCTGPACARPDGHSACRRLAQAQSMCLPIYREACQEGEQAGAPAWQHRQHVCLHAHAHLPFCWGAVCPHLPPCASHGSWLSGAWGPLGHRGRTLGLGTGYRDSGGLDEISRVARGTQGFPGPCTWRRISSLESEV
Sequence of Ionotropic glutamate receptor NMDA 1/2D (O15399 whole entry, other chains not shown): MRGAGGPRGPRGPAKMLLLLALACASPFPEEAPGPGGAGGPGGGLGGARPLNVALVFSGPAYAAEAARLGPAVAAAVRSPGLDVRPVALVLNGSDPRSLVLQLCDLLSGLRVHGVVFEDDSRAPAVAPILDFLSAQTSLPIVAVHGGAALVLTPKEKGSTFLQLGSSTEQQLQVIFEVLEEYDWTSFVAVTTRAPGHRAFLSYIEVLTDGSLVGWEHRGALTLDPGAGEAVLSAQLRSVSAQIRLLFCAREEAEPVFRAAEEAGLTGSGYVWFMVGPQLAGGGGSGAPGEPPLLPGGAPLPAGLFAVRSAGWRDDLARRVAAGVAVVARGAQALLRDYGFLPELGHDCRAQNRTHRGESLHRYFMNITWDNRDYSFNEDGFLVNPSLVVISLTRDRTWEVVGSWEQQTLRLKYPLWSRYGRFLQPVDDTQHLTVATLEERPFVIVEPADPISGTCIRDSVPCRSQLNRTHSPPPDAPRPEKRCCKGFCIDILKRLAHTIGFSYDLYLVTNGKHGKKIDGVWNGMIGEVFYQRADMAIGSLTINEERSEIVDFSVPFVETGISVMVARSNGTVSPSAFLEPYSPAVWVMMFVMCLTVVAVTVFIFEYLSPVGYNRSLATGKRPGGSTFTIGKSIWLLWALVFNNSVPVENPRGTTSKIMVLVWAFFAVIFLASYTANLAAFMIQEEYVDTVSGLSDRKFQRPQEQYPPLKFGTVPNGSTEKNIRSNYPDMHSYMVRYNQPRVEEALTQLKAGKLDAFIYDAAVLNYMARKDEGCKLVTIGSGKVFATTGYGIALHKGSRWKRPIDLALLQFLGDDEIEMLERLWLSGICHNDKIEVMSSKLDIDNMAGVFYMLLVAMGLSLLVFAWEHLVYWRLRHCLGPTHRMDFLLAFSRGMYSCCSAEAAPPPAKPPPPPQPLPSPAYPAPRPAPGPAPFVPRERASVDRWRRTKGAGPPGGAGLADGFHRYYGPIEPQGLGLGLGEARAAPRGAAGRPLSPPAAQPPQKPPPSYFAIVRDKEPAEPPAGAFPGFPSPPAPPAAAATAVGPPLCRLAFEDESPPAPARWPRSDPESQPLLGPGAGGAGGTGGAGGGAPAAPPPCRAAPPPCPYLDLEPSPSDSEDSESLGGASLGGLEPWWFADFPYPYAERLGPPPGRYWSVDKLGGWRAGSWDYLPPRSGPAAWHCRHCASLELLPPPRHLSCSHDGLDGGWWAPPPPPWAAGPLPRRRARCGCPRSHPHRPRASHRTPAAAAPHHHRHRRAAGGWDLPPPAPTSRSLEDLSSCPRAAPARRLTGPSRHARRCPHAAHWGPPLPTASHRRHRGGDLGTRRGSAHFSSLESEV
Sequence of Glutamate NMDA receptor; GRIN1/GRIN2A (Q12879 whole entry, other chains not shown): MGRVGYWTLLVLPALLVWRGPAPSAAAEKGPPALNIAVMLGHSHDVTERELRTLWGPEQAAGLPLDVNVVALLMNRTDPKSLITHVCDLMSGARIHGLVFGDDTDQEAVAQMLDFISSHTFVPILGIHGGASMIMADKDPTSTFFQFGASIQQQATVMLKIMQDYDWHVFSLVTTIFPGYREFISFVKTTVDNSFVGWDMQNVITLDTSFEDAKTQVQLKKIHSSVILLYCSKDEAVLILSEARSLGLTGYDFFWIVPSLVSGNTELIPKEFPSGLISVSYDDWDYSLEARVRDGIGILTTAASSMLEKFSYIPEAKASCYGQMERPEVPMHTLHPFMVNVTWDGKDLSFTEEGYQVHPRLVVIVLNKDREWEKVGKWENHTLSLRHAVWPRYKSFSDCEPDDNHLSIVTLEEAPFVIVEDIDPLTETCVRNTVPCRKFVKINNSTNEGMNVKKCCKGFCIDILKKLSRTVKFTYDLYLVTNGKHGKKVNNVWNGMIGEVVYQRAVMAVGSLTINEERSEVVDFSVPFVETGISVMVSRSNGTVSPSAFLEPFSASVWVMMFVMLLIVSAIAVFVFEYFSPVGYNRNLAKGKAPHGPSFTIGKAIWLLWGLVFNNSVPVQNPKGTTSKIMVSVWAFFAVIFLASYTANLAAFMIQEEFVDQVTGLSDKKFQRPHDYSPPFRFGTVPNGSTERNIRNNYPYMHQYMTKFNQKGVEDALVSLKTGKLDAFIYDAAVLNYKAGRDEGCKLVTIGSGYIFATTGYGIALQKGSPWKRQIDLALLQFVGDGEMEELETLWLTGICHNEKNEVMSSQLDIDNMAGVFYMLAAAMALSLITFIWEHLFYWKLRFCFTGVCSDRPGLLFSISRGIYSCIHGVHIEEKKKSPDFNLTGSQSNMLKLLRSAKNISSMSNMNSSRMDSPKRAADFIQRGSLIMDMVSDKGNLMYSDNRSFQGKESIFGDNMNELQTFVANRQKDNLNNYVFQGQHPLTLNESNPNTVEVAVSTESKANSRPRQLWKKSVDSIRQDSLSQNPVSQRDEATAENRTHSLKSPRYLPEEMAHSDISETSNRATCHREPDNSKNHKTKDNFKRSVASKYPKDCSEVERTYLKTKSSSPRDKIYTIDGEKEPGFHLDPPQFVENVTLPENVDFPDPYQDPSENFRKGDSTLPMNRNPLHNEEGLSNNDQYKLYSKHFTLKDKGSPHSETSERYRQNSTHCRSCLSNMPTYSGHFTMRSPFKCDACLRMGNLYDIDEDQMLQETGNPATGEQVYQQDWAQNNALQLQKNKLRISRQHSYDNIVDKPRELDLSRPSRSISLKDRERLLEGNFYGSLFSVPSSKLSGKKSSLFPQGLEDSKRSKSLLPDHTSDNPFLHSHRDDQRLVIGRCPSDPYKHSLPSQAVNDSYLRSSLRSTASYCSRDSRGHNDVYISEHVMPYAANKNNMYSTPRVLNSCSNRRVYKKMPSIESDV

Compound	IC50 [1] [nM]	also measured
CC(=O)[C@H]1CC[C@H]2[C@@H]3CC[C@@H]4C[C@H](OS(=O)(=O)O)CC[C@]4(C)[C@H]3CC[C@]12C	23400	inhibition [1]: Dose-dependent effect
C[C@@H]1CC[C@@H]2[C@H]1CC[C@H]1[C@H]2CC[C@@H]2C[C@H](OS(=O)(=O)O)CC[C@@]21C.c1ccncc1	900	
C[C@H]1CC[C@@H]2[C@@H]1CC[C@H]1[C@H]2CC[C@@H]2C[C@H](OS(=O)(=O)O)CC[C@@]21C.c1ccncc1	700	
C[C@]12CC[C@@H](OS(=O)(=O)O)C[C@H]1CC[C@@H]1[C@@H]2CC[C@]2(C)C=CC[C@@H]12.c1ccncc1		inhibition [2]: inactive
CC(C)[C@H]1CC[C@H]2[C@@H]3CC[C@@H]4C[C@H](OS(=O)(=O)O)CC[C@]4(C)[C@H]3CC[C@]12C.c1ccncc1	170	
C=C1CC[C@H]2[C@@H]3CC[C@@H]4C[C@H](OS(=O)(=O)O)CC[C@]4(C)[C@H]3CC[C@]12C.c1ccncc1	1600	
C[C@]12CC[C@@H](OS(=O)(=O)O)C[C@H]1CC[C@@H]1[C@@H]2CC[C@@]2(C)[C@H]1CCC2(F)F.c1ccncc1	7000	
C[C@]12CC[C@@H](OS(=O)(=O)O)C[C@H]1CC[C@@H]1[C@@H]2CC[C@]2(C)[C@@H](I)CC[C@@H]12.c1ccncc1	600	
C[C@@]12CCC[C@H]1[C@@H]1CC[C@@H]3C[C@H](OS(=O)(=O)O)CC[C@]3(C)[C@H]1CC2.c1ccncc1	1200	
C[C@@]12CCC[C@H]1[C@@H]1CC[C@@H]3C[C@H](OS(=O)(=O)O)CC[C@@H]3[C@H]1CC2.c1ccncc1	5400	
CC[C@@H](C)[C@H]1CC[C@H]2[C@@H]3CC[C@@H]4C[C@H](OS(=O)(=O)O)CC[C@]4(C)[C@H]3CC[C@]12C.c1ccncc1	90	
C=C(C)[C@H]1CC[C@H]2[C@@H]3CC[C@@H]4C[C@H](OS(=O)(=O)O)CC[C@]4(C)[C@H]3CC[C@]12C.c1ccncc1	500	
C/C=C1/CC[C@H]2[C@@H]3CC[C@@H]4C[C@H](OS(=O)(=O)O)CC[C@]4(C)[C@H]3CC[C@]12C.c1ccncc1	800	
CC[C@H]1CC[C@H]2[C@@H]3CC[C@@H]4C[C@H](OS(=O)(=O)O)CC[C@]4(C)[C@H]3CC[C@]12C.c1ccncc1	400	
C=C1C[C@H]2[C@@H]3CC[C@@H]4C[C@H](OS(=O)(=O)O)CC[C@]4(C)[C@H]3CC[C@]2(C)C1.c1ccncc1	2200	
C[C@@]12CCCC[C@H]1[C@@H]1CC[C@@H]3C[C@H](OS(=O)(=O)O)CC[C@]3(C)[C@H]1CC2.c1ccncc1	1100	
C[C@H]1CC[C@H]2[C@@H]3CC[C@@H]4C[C@H](OS(=O)(=O)O)CC[C@]4(C)[C@H]3CC[C@]12C.c1ccncc1	600	IC50 (Glutamate NMDA receptor): 900 nM; IC50 [3]: 1200 nM; IC50 [4]: 600 nM; IC50 [5]: 500 nM; IC50 [6]: 400 nM; IC50 [7]: 9.5 µM

Reference: ChEMBL document CHEMBL3593227, “A New Class of Potent N-Methyl-D-Aspartate Receptor Inhibitors: Sulfated Neuroactive Steroids with Lipophilic D-Ring Modifications” (J Med Chem, 2015)
